ChEMBL document CHEMBL4842376, “Design, synthesis and biological evaluation of novel hybrids targeting mTOR and HDACs for potential treatment of hepatocellular carcinoma” (Eur J Med Chem, 2021)
pIC50: −log10 of the molar value. The source made the active and inactive calls. The calls are words filed in the database; no cut-off is given here.

Tests used:
Huh-7 = experiment: cells; format: functional, cell-based; conditions: Homo sapiens, Huh-7, 72 h
Description: Antiproliferative activity against human Huh-7 cells assessed as inhibition of cell growth measured after 72 hrs by MTT assay

SNU-423 = experiment: Antiproliferative activity against human SNU-423 cells assessed as inhibition of cell growth measured after 72 hrs by MTT assay; format: functional, cell-based; conditions: SNU-423, 72 h
Histone deacetylase 2 = Histone deacetylase 2 (Homo sapiens, UniProt Q92769)
Chain of Histone deacetylase 2 (Q92769 whole entry): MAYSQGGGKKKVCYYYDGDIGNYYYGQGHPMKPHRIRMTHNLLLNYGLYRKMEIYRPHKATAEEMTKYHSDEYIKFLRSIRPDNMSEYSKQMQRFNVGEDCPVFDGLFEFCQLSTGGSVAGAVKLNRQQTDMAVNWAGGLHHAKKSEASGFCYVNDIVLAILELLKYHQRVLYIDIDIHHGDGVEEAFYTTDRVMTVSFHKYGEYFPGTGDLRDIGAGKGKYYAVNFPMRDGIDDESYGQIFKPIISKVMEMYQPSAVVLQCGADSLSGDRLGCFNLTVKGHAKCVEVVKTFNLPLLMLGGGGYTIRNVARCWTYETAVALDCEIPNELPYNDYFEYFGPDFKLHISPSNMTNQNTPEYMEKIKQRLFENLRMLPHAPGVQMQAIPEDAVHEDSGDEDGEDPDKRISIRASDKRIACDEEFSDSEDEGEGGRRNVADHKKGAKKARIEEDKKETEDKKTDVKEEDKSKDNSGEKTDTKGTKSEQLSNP

[1] = molecular target: T1, Histone deacetylase (Homo sapiens) (UniProt Q13547+O15379+Q9UBN7+Q92769+Q9UQL6+Q8WUI4+Q9BY41+Q96DB2+P56524+Q9UKV0+Q969S8); experiment: Inhibition of HDAC in human HepG2 cells assessed as upregulation of histone H3 acetylation at 6 uM measured after 24 hrs by western blot analysis; format: cell-based
Histone deacetylase 8 = molecular target: T2, Histone deacetylase 8 (Homo sapiens, UniProt Q9BY41); experiment: Inhibition of HDAC8 (unknown origin) using Ac-peptide as a substrate pretreated for 15 mins followed by substrate addition
T2 sequence (Q9BY41 whole entry): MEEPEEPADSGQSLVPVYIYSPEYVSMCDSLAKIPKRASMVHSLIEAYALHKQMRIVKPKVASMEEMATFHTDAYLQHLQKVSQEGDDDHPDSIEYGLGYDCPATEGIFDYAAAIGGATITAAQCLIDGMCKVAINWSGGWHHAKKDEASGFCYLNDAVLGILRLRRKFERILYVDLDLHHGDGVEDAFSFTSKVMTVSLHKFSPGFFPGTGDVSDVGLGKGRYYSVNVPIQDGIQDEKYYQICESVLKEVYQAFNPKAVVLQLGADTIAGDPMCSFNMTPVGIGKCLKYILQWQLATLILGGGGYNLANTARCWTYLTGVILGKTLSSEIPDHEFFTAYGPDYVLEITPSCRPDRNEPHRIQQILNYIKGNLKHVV

[2] = Metabolic stability in rat liver microsomes assessed as parent compound remaining at 10 ug/ml measured after 1 hr in the presence of NADPH by HPLC analysis; format: ADME, Microsome; conditions: liver microsomes, at 10 µg/mL, read-out: Stabilty
MCF7 = experiment: cells; format: functional, cell-based; conditions: Homo sapiens, MCF7, 72 h
Description: Antiproliferative activity against human MCF7 cells assessed as inhibition of cell growth measured after 72 hrs by MTT assay

L02 = experiment: cells; format: ADME, cell-based; conditions: Homo sapiens, L02, 72 h
Description: Cytotoxicity against human L02 cells assessed as reduction in cell viability measured after 72 hrs by MTT assay

[3] = molecular target: T3, Protein deacetylase HDAC6 (Homo sapiens) (UniProt Q9UBN7); experiment: Inhibition of HDAC6 (unknown origin) at 1 uM using Ac-peptide as a substrate pretreated for 15 mins followed by substrate addition relative to control
T3 sequence (whole entry): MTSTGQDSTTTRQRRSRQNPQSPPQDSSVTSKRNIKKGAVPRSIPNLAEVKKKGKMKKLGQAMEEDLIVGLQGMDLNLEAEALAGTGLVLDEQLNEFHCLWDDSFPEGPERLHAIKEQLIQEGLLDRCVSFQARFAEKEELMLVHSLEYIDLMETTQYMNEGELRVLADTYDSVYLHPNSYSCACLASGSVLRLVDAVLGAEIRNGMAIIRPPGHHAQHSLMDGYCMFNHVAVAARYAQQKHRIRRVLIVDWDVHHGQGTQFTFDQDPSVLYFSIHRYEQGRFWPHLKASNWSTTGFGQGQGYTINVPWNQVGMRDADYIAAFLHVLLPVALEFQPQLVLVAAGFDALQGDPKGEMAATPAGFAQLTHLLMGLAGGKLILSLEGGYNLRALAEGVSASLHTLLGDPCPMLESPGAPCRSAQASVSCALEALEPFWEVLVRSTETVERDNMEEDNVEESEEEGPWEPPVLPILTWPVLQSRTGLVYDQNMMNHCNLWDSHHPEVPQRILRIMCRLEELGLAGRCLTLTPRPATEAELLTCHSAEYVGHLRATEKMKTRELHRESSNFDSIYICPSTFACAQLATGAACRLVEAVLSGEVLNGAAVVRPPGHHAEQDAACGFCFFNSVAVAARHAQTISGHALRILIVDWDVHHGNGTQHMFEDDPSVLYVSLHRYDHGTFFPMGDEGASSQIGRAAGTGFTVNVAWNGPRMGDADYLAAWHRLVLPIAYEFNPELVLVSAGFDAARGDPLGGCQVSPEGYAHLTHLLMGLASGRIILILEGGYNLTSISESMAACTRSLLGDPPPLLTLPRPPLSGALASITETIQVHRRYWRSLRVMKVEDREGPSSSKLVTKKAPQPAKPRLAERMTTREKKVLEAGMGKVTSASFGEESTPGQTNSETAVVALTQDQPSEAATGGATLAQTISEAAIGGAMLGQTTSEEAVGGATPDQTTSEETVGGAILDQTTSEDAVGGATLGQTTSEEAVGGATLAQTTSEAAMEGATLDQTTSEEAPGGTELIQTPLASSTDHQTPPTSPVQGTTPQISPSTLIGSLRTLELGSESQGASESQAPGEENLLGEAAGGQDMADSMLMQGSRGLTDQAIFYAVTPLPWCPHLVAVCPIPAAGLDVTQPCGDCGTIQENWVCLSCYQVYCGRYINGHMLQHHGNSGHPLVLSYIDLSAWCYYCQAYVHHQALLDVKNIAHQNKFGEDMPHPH

[4] = molecular target: T1, Histone deacetylase (Homo sapiens); experiment: Inhibition of HDAC in human HepG2 cells assessed as upregulation of alpha-tubulin acetylation at 6 uM measured after 24 hrs by western blot analysis; format: cell-based
Histone deacetylase 1 = Histone deacetylase 1 (Homo sapiens, UniProt Q13547); experiment: Inhibition of HDAC1 (unknown origin) using Ac-peptide as a substrate pretreated for 15 mins followed by substrate addition
Chain of Histone deacetylase 1 (Q13547 whole entry): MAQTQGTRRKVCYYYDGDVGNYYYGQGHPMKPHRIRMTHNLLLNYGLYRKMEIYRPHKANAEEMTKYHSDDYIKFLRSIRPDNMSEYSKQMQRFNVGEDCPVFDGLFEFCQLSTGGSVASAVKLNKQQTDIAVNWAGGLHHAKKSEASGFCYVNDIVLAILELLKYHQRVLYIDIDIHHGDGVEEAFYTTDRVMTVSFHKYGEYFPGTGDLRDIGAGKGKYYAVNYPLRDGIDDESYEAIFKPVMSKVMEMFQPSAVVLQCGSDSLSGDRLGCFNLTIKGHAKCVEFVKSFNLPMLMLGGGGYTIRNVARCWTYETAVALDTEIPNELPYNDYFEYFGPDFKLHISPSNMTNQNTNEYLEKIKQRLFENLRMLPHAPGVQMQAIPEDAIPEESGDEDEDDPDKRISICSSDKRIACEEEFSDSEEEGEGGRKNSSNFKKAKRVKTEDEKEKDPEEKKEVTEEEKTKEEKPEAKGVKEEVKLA

HCT-116 = experiment: cells; format: functional, cell-based; conditions: Homo sapiens, HCT-116, 72 h
Description: Antiproliferative activity against human HCT-116 cells assessed as inhibition of cell growth measured after 72 hrs by MTT assay

Histone deacetylase 3 = Histone deacetylase 3 (Homo sapiens, UniProt O15379); experiment: Inhibition of HDAC3 (unknown origin) using Ac-peptide as a substrate pretreated for 15 mins followed by substrate addition
Chain of Histone deacetylase 3 (O15379 whole entry): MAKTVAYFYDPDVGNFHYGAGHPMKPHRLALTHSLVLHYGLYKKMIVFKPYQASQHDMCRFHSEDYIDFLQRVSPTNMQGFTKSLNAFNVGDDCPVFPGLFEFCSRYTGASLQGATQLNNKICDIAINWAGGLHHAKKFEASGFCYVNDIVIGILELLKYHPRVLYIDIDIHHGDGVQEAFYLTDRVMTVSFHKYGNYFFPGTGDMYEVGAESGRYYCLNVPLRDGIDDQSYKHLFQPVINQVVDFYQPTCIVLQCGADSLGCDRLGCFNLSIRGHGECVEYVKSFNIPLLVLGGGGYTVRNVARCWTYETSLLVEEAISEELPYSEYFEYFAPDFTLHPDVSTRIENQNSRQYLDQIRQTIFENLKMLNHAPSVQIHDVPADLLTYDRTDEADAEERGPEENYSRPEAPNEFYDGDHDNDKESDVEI

[5] = molecular target: T4, Protein deacetylase HDAC6 (Homo sapiens, UniProt Q9UBN7); experiment: Inhibition of HDAC6 (unknown origin) using Ac-peptide as a substrate pretreated for 15 mins followed by substrate addition
T4 sequence (Q9UBN7 whole entry): T3 sequence (whole entry)

HepG2 = experiment: Antiproliferative activity against human HepG2 cells assessed as inhibition of cell growth measured after 72 hrs by MTT assay; format: functional, cell-based; conditions: HepG2, 72 h
HeLa = experiment: cells; format: functional, cell-based; conditions: Homo sapiens, 72 h
Description: Antiproliferative activity against human HeLa cells assessed as inhibition of cell growth measured after 72 hrs by MTT assay

SK-HEP1 = experiment: cells; format: functional, cell-based; conditions: Homo sapiens, SK-HEP1, 72 h
Description: Antiproliferative activity against human SK-HEP1 cells assessed as inhibition of cell growth measured after 72 hrs by MTT assay

Hep 3B2 = experiment: cells; format: functional, cell-based; conditions: Homo sapiens, Hep3B, 72 h
Description: Antiproliferative activity against human Hep3B cells assessed as inhibition of cell growth measured after 72 hrs by MTT assay

PLC-PRF-5 = experiment: Antiproliferative activity against human PLC-PRF-5 cells assessed as inhibition of cell growth measured after 72 hrs by MTT assay; format: functional, cell-based; conditions: PLC-PRF-5, 72 h
Bel-7402 = experiment: Antiproliferative activity against human Bel-7402 cells assessed as inhibition of cell growth measured after 72 hrs by MTT assay; format: functional, cell-based; conditions: Bel-7402, 72 h
MDA-MB-231 = experiment: cells; format: functional, cell-based; conditions: Homo sapiens, MDA-MB-231, 72 h
Description: Antiproliferative activity against human MDA-MB-231 cells assessed as inhibition of cell growth measured after 72 hrs by MTT assay

A549 = experiment: cells; format: functional, cell-based; conditions: Homo sapiens, A549, 72 h
Description: Antiproliferative activity against human A549 cells assessed as inhibition of cell growth measured after 72 hrs by MTT assay

[6] = molecular target: Serine/threonine-protein kinase mTOR (Homo sapiens, UniProt P42345); experiment: Inhibition of mTOR (unknown origin) at 1 uM using U-Light-4E-BP1 peptide as a substrate in the presence of ATP incubated for 30 mins by Lance ultra assay relative to control
CNE-2 = experiment: cells; format: functional, cell-based; conditions: Homo sapiens, CNE-2, 72 h
Description: Antiproliferative activity against human CNE-2 cells assessed as inhibition of cell growth measured after 72 hrs by MTT assay

in vitro = conditions: human, L02 cells versus HepG2 cells
Description: Selectivity index, ratio of IC50 for cytotoxicity against human L02 cells to IC50 for antiproliferative activity against human HepG2 cells

pIC50 (Huh-7): 5.56
pIC50 (SNU-423): 6.55
pIC50 (Histone deacetylase 2): 8.47
inhibition [1]: Active
pIC50 (Histone deacetylase 8): 6.48
remaining at 1 h, 10 ug/ml [2]: 63.9%
pIC50 (MCF7): 5.14
inhibition [3]: 99.1%
inhibition [4]: Active
pIC50 (Histone deacetylase 1): 8.60
pIC50 (HCT-116): 5.50
pIC50 (Histone deacetylase 3): 8.15
pIC50 [5]: 8.17
pIC50 (HepG2): 5.44
pIC50 (HeLa): 4.89
pIC50 (SK-HEP1): 4.97
pIC50 (Hep 3B2): 4.99
pIC50 (Bel-7402): 4.88
pIC50 (MDA-MB-231): 5.54
pIC50 (A549): 5.08
inhibition [6]: 99.6%
pIC50 (CNE-2): 5.65
SMILES: Nc1nc2cc(-c3nn(CCCCCCCC(=O)NO)c4ncnc(N)c34)ccc2o1
pIC50 (L02): 5.09
pIC50 (PLC-PRF-5): 4.52
selectivity ratio (in vitro): 2.21
